Measurements taken from patent US9499535B2, “Kinase inhibitors” (ORIGENIS GMBH, priority 2011, dated 2016).

Legend:
SYK kinase = target: T1, SYK kinase (Homo sapiens, UniProt P43405); experiment: SYK assay (OMNIA Kinase Assay, Invitrogen); type: biochemical; details: apparent Ki calculated from the IC50 using the Cheng-Prusoff equation; 1 mM ATP, 10 μM Peptide Substrate; read-out: SYK Activities: Ki
T1 construct: purchased Invitrogen, Carlsbad
Experimental: In the assay OMNIA® KINASE ASSAY by Invitrogen Corporation (Carlsbad) the effect of invention of a compound on the phosphorylation is determined by measurement of fluorescence intensity of a chelation-enhanced fluorophore called SOX. Upon phosphorylation of the peptide by the kinase of interest, Mg2+ is chelated to form a bridge between the SOX moiety and the phosphate group that is transferred to the specific tyrosine on the peptide. The fluorescence intensity is directly proportional to the amount of peptide phosphorylation.
To the wells of an 384 well small volume plate (Greiner, Frickenhausen) are added (i) the compound under test in 5% DMSO/distilled water (2 μl), (ii) 16 μl of the master mix containing ATP, DTT, Kinase Reaction Buffer, Omina Peptide Substrate Tyr 7 resulting in a final concentration of 1 mM ATP, 0.2 mM DTT and 10 μM Peptide Substrate.
The Master Mix and the assay plate was incubated to reaction temperature before the measurement (30° C.). The reaction was started with addition of (iii) 2 μl 4 μg/ml SYK kinase (Invitrogen, Carlsbad). During measurement fluorescence intensitiy readings were collected using a TECAN M1000 at a wavelength of λex 360/λem 485 nm every 30 s for 30 minutes. The reaction velocity was plotted versus the inhibitor concentration to determine the IC50 using XLFit 5.0 (IDBS, Guildford) to fit to a sigmoidal dose response curve, and the apparent Ki values were calculated from the IC50 using the Cheng-Prusoff equation (Cheng, Y.; Prusoff, W. H. Biochem. Pharmacol. 22, 3099-3108, 1973).

LRRK2 = LRRK2 (Homo sapiens, UniProt Q5S007); experiment: LRRK2 assay (LanthaScreen Eu Kinase Binding Assay); details: 5 nM LRRK2, 10 nM tracer 236, RT 1 h; read-out: LRRK2 Activites: IC50
Excerpt: Binding of the tracer to the kinase is detected using a europium-labeled anti-tag antibody, which binds to the kinase of interest. […] Binding of an inhibitor to the kinase competes for binding with the tracer, resulting in a loss of FRET. The fluorescence intensity ratio is directly proportional to the amount of peptide phosphorylation.
The inhibitor concentration was plotted versus the emission ratio to determine the IC50 using XLFit 5.0 (IDBS, Guildford) to fit to a sigmoidal dose response curve with a variable slope.

LRRK2, sequence (Q5S007 970-2527 limits assumed): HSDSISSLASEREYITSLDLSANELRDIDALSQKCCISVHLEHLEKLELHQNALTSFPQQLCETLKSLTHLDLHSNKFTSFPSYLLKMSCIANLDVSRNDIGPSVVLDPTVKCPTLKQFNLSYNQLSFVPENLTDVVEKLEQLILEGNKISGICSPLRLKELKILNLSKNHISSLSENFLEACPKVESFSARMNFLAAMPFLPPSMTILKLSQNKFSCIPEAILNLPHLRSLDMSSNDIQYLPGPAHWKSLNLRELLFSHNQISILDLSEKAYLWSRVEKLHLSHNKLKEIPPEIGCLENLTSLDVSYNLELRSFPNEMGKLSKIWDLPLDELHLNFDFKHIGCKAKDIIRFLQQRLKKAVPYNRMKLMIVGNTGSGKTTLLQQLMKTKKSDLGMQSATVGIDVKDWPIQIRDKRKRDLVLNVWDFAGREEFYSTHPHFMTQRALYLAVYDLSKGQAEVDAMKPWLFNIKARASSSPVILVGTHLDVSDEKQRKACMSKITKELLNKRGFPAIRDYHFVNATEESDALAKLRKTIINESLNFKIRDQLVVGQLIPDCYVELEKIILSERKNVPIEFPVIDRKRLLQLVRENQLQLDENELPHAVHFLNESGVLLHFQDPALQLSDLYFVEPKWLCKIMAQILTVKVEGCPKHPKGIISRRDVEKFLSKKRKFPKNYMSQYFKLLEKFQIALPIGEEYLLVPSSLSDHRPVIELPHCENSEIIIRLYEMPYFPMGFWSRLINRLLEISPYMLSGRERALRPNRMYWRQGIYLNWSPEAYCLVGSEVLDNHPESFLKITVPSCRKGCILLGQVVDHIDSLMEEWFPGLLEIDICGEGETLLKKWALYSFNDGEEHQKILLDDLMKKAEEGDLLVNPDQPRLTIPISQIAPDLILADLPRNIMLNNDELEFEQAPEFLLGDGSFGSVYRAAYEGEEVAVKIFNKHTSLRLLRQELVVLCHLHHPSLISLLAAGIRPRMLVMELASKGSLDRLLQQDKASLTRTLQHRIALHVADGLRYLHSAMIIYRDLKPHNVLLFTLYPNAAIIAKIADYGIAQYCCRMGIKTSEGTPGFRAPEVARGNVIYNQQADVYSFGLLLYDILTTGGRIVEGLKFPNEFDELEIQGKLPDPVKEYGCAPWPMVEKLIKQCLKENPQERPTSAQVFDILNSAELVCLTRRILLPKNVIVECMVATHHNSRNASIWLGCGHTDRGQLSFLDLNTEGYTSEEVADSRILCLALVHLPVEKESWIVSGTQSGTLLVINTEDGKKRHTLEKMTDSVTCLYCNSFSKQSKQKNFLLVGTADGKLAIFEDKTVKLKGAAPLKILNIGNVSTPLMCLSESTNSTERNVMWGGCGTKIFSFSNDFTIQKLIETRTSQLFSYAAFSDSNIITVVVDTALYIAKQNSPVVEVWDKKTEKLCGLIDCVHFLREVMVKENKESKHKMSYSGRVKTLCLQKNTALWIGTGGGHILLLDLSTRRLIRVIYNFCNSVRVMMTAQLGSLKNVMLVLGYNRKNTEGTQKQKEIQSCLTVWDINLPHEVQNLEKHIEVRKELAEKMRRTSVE

SMILES | Ki (SYK kinase) [nM] | IC50 (LRRK2) [nM]
COc1cc(Nc2nc3ccccc3c3c[nH]nc23)cc(OC)c1OC [Example #3, (2H-Pyrazolo[3,4-c]quinolin-4-yl)-(3,4,5-trimethoxy-phenyl)-amine] | 100 to 1000 | 100 to 1000
COc1ccc2nc(Nc3ccc4c[nH]nc4c3)c3n[nH]cc3c2c1 [Example #15, (2H-Indazol-6-yl)-(8-methoxy-2H-pyrazolo[3,4-c]quinolin-4-yl)-amine] | – | 100 to 1000
COc1ccc2nc(Nc3cccc(C)c3)c3n[nH]cc3c2c1 [Example #37, (8-Methoxy-2H-pyrazolo[3,4-c]quinolin-4-yl)-m-tolyl-amine] | 100 to 1000 | 100 to 1000
COc1ccc2nc(Nc3ccc4cnn(C)c4c3)c3n[nH]cc3c2c1 [Example #40, (8-Methoxy-2H-pyrazolo[3,4-c]quinolin-4-yl)-(1-methyl-1H-indazol-6-yl)-amine] | < 10 | 100 to 1000
Brc1ccc2nc(Nc3ccc4[nH]ncc4c3)c3n[nH]cc3c2c1 [Example #45, (8-Bromo-2H-pyrazolo[3,4-c]quinolin-4-yl)-(1H-indazol-5-yl)-amine] | 10 to 100 | 100 to 1000
O=C1COc2ccc(Nc3nc4ccccc4c4cn[nH]c34)cc2N1 [Example #46, 6-(3H-Pyrazolo[3,4-c]quinolin-4-ylamino)-4H-benzo[1,4]oxazin-3-one] | 10 to 100 | 100 to 1000
COc1ccc2nc(Nc3ccc4c(c3)NC(=O)CO4)c3[nH]ncc3c2c1 [Example #47, 6-(8-Methoxy-3H-pyrazolo[3,4-c]quinolin-4-ylamino)-4H-benzo[1,4]oxazin-3-one] | – | 10 to 100
COc1ccc2nc(Nc3ccc4[nH]nnc4c3)c3n[nH]cc3c2c1 [Example #48, (1H-Benzotriazol-5-yl)-(8-methoxy-2H-pyrazolo[3,4-c]quinolin-4-yl)-amine] | – | 100 to 1000
COc1ccc2nc(Nc3ccc(N4CCCCC4)cc3)c3n[nH]cc3c2c1 [Example #50, (8-Methoxy-2H-pyrazolo[3,4-c]quinolin-4-yl)-(4-piperidin-1-yl-phenyl)-amine] | 10 to 100 | 100 to 1000
COc1ccc2nc(Nc3ccc(N(C)C)cc3)c3n[nH]cc3c2c1 [Example #51, N-(8-Methoxy-2H-pyrazolo[3,4-c]quinolin-4-yl)-N′,N′-dimethyl-benzene-1,4-diamine] | 10 to 100 | 10 to 100
COc1ccc2nc(Nc3ccc(N4CCOCC4)cc3)c3n[nH]cc3c2c1 [Example #54, (8-Methoxy-2H-pyrazolo[3,4-c]quinolin-4-yl)-(4-morpholin-4-yl-phenyl)-amine] | 10 to 100 | 10 to 100
COc1ccc2nc(Nc3ccc(C#N)cc3)c3n[nH]cc3c2c1 [Example #59, 4-(8-Methoxy-2H-pyrazolo[3,4-c]quinolin-4-ylamino)-benzonitrile] | 100 to 1000 | 100 to 1000
COc1ccc(Nc2nc3ccc(OC)cc3c3c[nH]nc23)cc1 [Example #61, (4-Methoxy-phenyl)-(8-methoxy-2H-pyrazolo[3,4-c]quinolin-4-yl)-amine] | 10 to 100 | 100 to 1000
COc1ccc2nc(Nc3cc[nH]n3)c3n[nH]cc3c2c1 [Example #66, (8-Methoxy-2H-pyrazolo[3,4-c]quinolin-4-yl)-(1H-pyrazol-3-yl)-amine] | 10 to 100 | 100 to 1000
COc1ccc2nc(Nc3ccc4c[nH]nc4c3)c3n[nH]cc3c2c1 [Example #74, (1H-Indazol-6-yl)-(8-methoxy-2H-pyrazolo[3,4-c]quinolin-4-yl)-amine] | 10 to 100 | 10 to 100
COc1ccc2nc(Nc3cc(-c4ccccc4)n[nH]3)c3n[nH]cc3c2c1 [Example #77, (8-Methoxy-2H-pyrazolo[3,4-c]quinolin-4-yl)-(5-phenyl-2H-pyrazol-3-yl)-amine] | 10 to 100 | < 10
COc1ccc2nc(Nc3cccc(N4CCOCC4)c3)c3[nH]ncc3c2c1 [Example #81, (8-Methoxy-3H-pyrazolo[3,4-c]quinolin-4-yl)-(3-morpholin-4-yl-phenyl)-amine] | 100 to 1000 | 100 to 1000
COc1ccc2nc(Nc3cc(C4CCC4)n[nH]3)c3n[nH]cc3c2c1 [Example #85, (5-Cyclobutyl-2H-pyrazol-3-yl)-(8-methoxy-2H-pyrazolo[3,4-c]quinolin-4-yl)-amine] | < 10 | < 10

SMILES | Ki (SYK kinase) [nM] | IC50 (LRRK2) [nM]
COc1ccc2nc(Nc3ccc4c(c3)NCC(C)(C)S4)c3n[nH]cc3c2c1 [Example #88, (2,2-Dimethyl-3,4-dihydro-2H-benzo[1,4]thiazin-6-yl)-(8-methoxy-2H-pyrazolo[3,4-c]quinolin-4-yl)-amine] | 10 to 100 | < 10
CCOc1cc2nc(Nc3ccc4cn[nH]c4c3)c3n[nH]cc3c2cc1OCC [Example #92, (7,8-Diethoxy-2H-pyrazolo[3,4-c]quinolin-4-yl)-(1H-indazol-6-yl)-amine] | 10 to 100 | 100 to 1000
COc1ccc2nc(Nc3ccc4c(c3)NC(=O)CC4)c3n[nH]cc3c2c1 [Example #93, 7-(8-Methoxy-2H-pyrazolo[3,4-c]quinolin-4-ylamino)-3,4-dihydro-1H-quinolin-2-one] | < 10 | < 10
COc1ccc2nc(Nc3ccc4c(c3)NC(=O)CS4)c3[nH]ncc3c2c1 [Example #94, 6-(8-Methoxy-3H-pyrazolo[3,4-c]quinolin-4-ylamino)-4H-benzo[1,4]thiazin-3-one] | 10 to 100 | 10 to 100
COc1ccc2nc(Nc3cc(C(C)(C)C)[nH]n3)c3[nH]ncc3c2c1 [Example #95, (5-tert-Butyl-1H-pyrazol-3-yl)-(8-methoxy-3H-pyrazolo[3,4-c]quinolin-4-yl)-amine] | 10 to 100 | 10 to 100
COc1ccc2nc(Nc3cc(C)n[nH]3)c3[nH]ncc3c2c1 [Example #96, (8-Methoxy-3H-pyrazolo[3,4-c]quinolin-4-yl)-(5-methyl-2H-pyrazol-3-yl)-amine] | 10 to 100 | 10 to 100
COc1ccc2nc(Nc3cc(C4CC4)[nH]n3)c3[nH]ncc3c2c1 [Example #97, (5-Cyclopropyl-1H-pyrazol-3-yl)-(8-methoxy-3H-pyrazolo[3,4-c]quinolin-4-yl)-amine] | < 10 | 10 to 100
COc1ccc2nc(Nc3ccc4c(c3)OCO4)c3n[nH]cc3c2c1 [Example #100, Benzo[1,3]dioxol-5-yl-(8-methoxy-2H-pyrazolo[3,4-c]quinolin-4-yl)-amine] | 10 to 100 | 100 to 1000
COc1ccc2nc(Nc3ccc4c(c3)OCCO4)c3n[nH]cc3c2c1 [Example #101, (2,3-Dihydro-benzo[1,4]dioxin-6-yl)-(8-methoxy-2H-pyrazolo[3,4-c]quinolin-4-yl)-amine] | 10 to 100 | 100 to 1000
COc1ccc2nc(Nc3ccc(N4CCOCC4)nc3)c3[nH]ncc3c2c1 [Example #103, (8-Methoxy-3H-pyrazolo[3,4-c]quinolin-4-yl)-(6-morpholin-4-yl-pyridin-3-yl)-amine] | 10 to 100 | 100 to 1000
COc1ccc2nc(Nc3ccc(C(C)=O)cc3)c3n[nH]cc3c2c1 [Example #145, 1-[4-(8-Methoxy-2H-pyrazolo[3,4-c]quinolin-4-ylamino)-phenyl]-ethanone] | – | 100 to 1000
COc1ccc(CCNC(=O)Cc2ccc(Nc3nc4ccc(OC)cc4c4c[nH]nc34)cc2)cc1 [Example #215] | – | 100 to 1000
COc1ccc2nc(Nc3ccc(-n4nccn4)cc3)c3n[nH]cc3c2c1 [Example #345, N-(4-(2H-1,2,3-triazol-2-yl)phenyl)-8-methoxy-2H-pyrazolo[3,4-c]quinolin-4-amine] | 100 to 1000 | –
COc1ccc2nc(Nc3cccc(-n4nccn4)c3)c3n[nH]cc3c2c1 [Example #347, N-(3-(2H-1,2,3-triazol-2-yl)phenyl)-8-methoxy-2H-pyrazolo[3,4-c]quinolin-4-amine] | 100 to 1000 | –
COc1ccc2nc(Nc3ccc(NC(=O)c4ccc(F)cc4)cc3)c3n[nH]cc3c2c1 [Example #358, 4-fluoro-N-(4-((8-methoxy-2H-pyrazolo[3,4-c]quinolin-4-yl)amino)phenyl)benzamide] | < 10 | –
COc1ccc2nc(Nc3ccc(N4CCOCC4)c([N+](=O)[O-])c3)c3n[nH]cc3c2c1 [Example #359, 8-methoxy-N-(4-morpholino-3-nitrophenyl)-2H-pyrazolo[3,4-c]quinolin-4-amine] | < 10 | –
Fc1cc(Nc2nc3cccc(F)c3c3cn[nH]c23)ccc1N1CCOCC1 [Example #364, 9-fluoro-N-(3-fluoro-4-morpholinophenyl)-3H-pyrazolo[3,4-c]quinolin-4-amine] | – | 100 to 1000
